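Growth conditions: 96-well plates. Treatment: test compound, 48 hours, 5 concentrations. Analysis: linear interpolation between bracketing concentrations; unreached endpoints set to highest concentration. Here, GI50 denotes the concentration required for 50% inhibition of growth. Definition used: TGI = concentration required for complete inhibition of growth.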
How the values were obtained:
Assay in all cases: NCI tumour cell line growth inhibition, 48 h
IGROV1 ovarian = tested on: IGROV1 ovarian
HT29 colon = tested on: HT29 colon
COLO 205 colon = tested on: COLO 205 colon
MOLT-4 leukemia = tested on: MOLT-4 leukemia
RXF 393 renal = tested on: RXF 393 renal
UACC-62 melanoma = tested on: UACC-62 melanoma
SK-OV-3 ovarian = tested on: SK-OV-3 ovarian
RPMI-8226 leukemia = tested on: RPMI-8226 leukemia
SR leukemia = tested on: SR leukemia
T-47D breast = tested on: T-47D breast

## COc1cc(CNc2nc3c(N)cc(C(F)(F)F)cc3nc2-c2ccccc2)cc(OC)c1OC
IGROV1 ovarian
  GI50: > 100 µM
  TGI: > 100 µM
HT29 colon
  TGI: > 100 µM
COLO 205 colon
  TGI: > 100 µM
MOLT-4 leukemia
  GI50: > 100 µM
  TGI: > 100 µM
RXF 393 renal
  TGI: 69.4 µM
UACC-62 melanoma
  TGI: > 100 µM
SK-OV-3 ovarian
  GI50: > 100 µM
  TGI: > 100 µM
RPMI-8226 leukemia
  TGI: > 100 µM

## CC(C)C1CO[C@]2(C)CCC(=O)N12 (stereo not given in full)
IGROV1 ovarian
  TGI: > 100 µM
HT29 colon
  TGI: > 100 µM
COLO 205 colon
  TGI: > 100 µM
MOLT-4 leukemia
  TGI: > 100 µM
RXF 393 renal
  TGI: > 100 µM
UACC-62 melanoma
  TGI: > 100 µM
SK-OV-3 ovarian
  TGI: > 100 µM
SR leukemia
  TGI: > 100 µM
RPMI-8226 leukemia
  TGI: > 100 µM

## Cc1cc2c(c(C(N)=O)c1C)-c1cccc(F)c1C2=O
IGROV1 ovarian
  TGI: > 100 µM
HT29 colon
  TGI: > 100 µM
COLO 205 colon
  TGI: > 100 µM
MOLT-4 leukemia
  TGI: > 100 µM
UACC-62 melanoma
  TGI: > 100 µM
SK-OV-3 ovarian
  TGI: > 100 µM
RPMI-8226 leukemia
  TGI: > 100 µM

## O=c1cc(-c2ccccn2)[nH]c2cccc(F)c12
IGROV1 ovarian
  TGI: > 100 µM
HT29 colon
  TGI: > 100 µM
COLO 205 colon
  TGI: > 100 µM
MOLT-4 leukemia
  TGI: > 100 µM
RXF 393 renal
  TGI: > 100 µM
UACC-62 melanoma
  TGI: > 100 µM
SK-OV-3 ovarian
  TGI: > 100 µM
SR leukemia
  TGI: > 100 µM
RPMI-8226 leukemia
  TGI: > 100 µM

## O=c1cccccc1[O-].O=c1cccccc1[O-].O=c1cccccc1[O-].[Eu+3]
IGROV1 ovarian
  TGI: > 100 µM
HT29 colon
  TGI: > 100 µM
MOLT-4 leukemia
  TGI: > 100 µM
RXF 393 renal
  TGI: 73.9 µM
UACC-62 melanoma
  TGI: > 100 µM
SK-OV-3 ovarian
  TGI: > 100 µM
RPMI-8226 leukemia
  TGI: > 100 µM

## Cc1c(C(=O)C/C(=N/NC(=O)c2ccccc2)C(=O)Nc2ccc(Cl)cc2)[n+](=O)c2ccccc2n1[O-]
IGROV1 ovarian
  TGI: > 100 µM
HT29 colon
  TGI: > 100 µM
COLO 205 colon
  TGI: > 100 µM
MOLT-4 leukemia
  TGI: > 100 µM
RXF 393 renal
  TGI: > 100 µM
SK-OV-3 ovarian
  TGI: > 100 µM
SR leukemia
  TGI: > 100 µM
RPMI-8226 leukemia
  TGI: > 100 µM

## CCCn1c(SCCSc2c3ccccc3c(-c3nc(F)nc(F)n3)n2CCC)c2ccccc2c1-c1nc(F)nc(F)n1
HT29 colon
  TGI: > 100 µM
COLO 205 colon
  TGI: > 100 µM
MOLT-4 leukemia
  TGI: > 100 µM
RXF 393 renal
  TGI: > 100 µM
UACC-62 melanoma
  TGI: > 100 µM
SK-OV-3 ovarian
  TGI: > 100 µM
SR leukemia
  TGI: 60.4 µM
RPMI-8226 leukemia
  TGI: 79.7 µM

## N#Cc1nc(-c2ccc(F)cc2)oc1S(=O)(=O)N1CCCCC1
IGROV1 ovarian
  GI50: 1.75 µM
  TGI: 3.5 µM
T-47D breast
  GI50: 2.13 µM
  TGI: 5.44 µM
HT29 colon
  GI50: 2.4 µM
  TGI: 5.42 µM
COLO 205 colon
  GI50: 2.07 µM
  TGI: 4.2 µM
MOLT-4 leukemia
  GI50: 2.22 µM
  TGI: 8.21 µM
RXF 393 renal
  GI50: 1.91 µM
  TGI: 3.38 µM
UACC-62 melanoma
  GI50: 1.62 µM
  TGI: 3.01 µM
SK-OV-3 ovarian
  GI50: 24.3 µM
  TGI: 91.2 µM

## CCC[CH2][Sn]([CH2]CCC)([O]C(=O)c1cc(OC)c(OC)cc1OC)[O][Sn]([CH2]CCC)([CH2]CCC)[O]C(=O)c1cc(OC)c(OC)cc1OC
IGROV1 ovarian
  GI50: 1.17 µM
  TGI: 2.68 µM
HT29 colon
  GI50: 1.22 µM
  TGI: 2.82 µM
COLO 205 colon
  GI50: 0.381 µM
  TGI: 1.32 µM
MOLT-4 leukemia
  GI50: 0.101 µM
  TGI: 0.786 µM
RXF 393 renal
  GI50: 0.151 µM
  TGI: 0.304 µM
UACC-62 melanoma
  GI50: 0.251 µM
  TGI: 0.715 µM
SK-OV-3 ovarian
  GI50: 1.21 µM
  TGI: 2.58 µM
RPMI-8226 leukemia
  GI50: 0.236 µM
  TGI: 0.667 µM

## C[N+]1=c2c3cccc4cccc(c(=O)n2CC1)c43
IGROV1 ovarian
  TGI: 60.5 µM
HT29 colon
  TGI: 64.4 µM
COLO 205 colon
  TGI: 24.6 µM
MOLT-4 leukemia
  TGI: 10.6 µM
RXF 393 renal
  TGI: 25.5 µM
UACC-62 melanoma
  TGI: 31.5 µM
SK-OV-3 ovarian
  TGI: 93.8 µM
SR leukemia
  TGI: 9.59 µM
RPMI-8226 leukemia
  TGI: 93.1 µM

## N#C/C(=C1\SCC(=O)N1c1ccccc1)c1nc2ccccc2[nH]1
IGROV1 ovarian
  TGI: > 100 µM
HT29 colon
  TGI: > 100 µM
COLO 205 colon
  TGI: > 100 µM
MOLT-4 leukemia
  TGI: > 100 µM
RXF 393 renal
  TGI: > 100 µM
UACC-62 melanoma
  TGI: > 100 µM
SK-OV-3 ovarian
  TGI: > 100 µM

## O=C1C2C(C(=O)N1c1ccccc1)C1c3ccccc3C2C2C(=O)N(c3ccccc3)C(=O)C21 (stereo not given)
IGROV1 ovarian
  TGI: > 100 µM
HT29 colon
  TGI: > 100 µM
COLO 205 colon
  TGI: > 100 µM
MOLT-4 leukemia
  TGI: > 100 µM
RXF 393 renal
  TGI: > 100 µM
UACC-62 melanoma
  TGI: > 100 µM
SK-OV-3 ovarian
  TGI: > 100 µM
RPMI-8226 leukemia
  TGI: > 100 µM

## CO/N=C(\COc1ccc2c(=O)c3ccccc3oc2c1)c1ccccc1
IGROV1 ovarian
  GI50: 39.6 µM
  TGI: > 100 µM
T-47D breast
  GI50: > 100 µM
  TGI: > 100 µM
HT29 colon
  GI50: 86.5 µM
  TGI: > 100 µM
COLO 205 colon
  GI50: > 100 µM
  TGI: > 100 µM
MOLT-4 leukemia
  GI50: > 100 µM
  TGI: > 100 µM
RXF 393 renal
  GI50: 39 µM
  TGI: > 100 µM
UACC-62 melanoma
  GI50: 21.6 µM
  TGI: 49.9 µM
SK-OV-3 ovarian
  GI50: 29.7 µM
  TGI: 77 µM
RPMI-8226 leukemia
  GI50: > 100 µM
  TGI: > 100 µM

## O=C(/C=C(\O)C(=O)O)/C=C(\O)c1ccccc1
IGROV1 ovarian
  GI50: > 1 µM
  TGI: > 100 µM
HT29 colon
  GI50: > 1 µM
  TGI: > 100 µM
COLO 205 colon
  GI50: > 1 µM
  TGI: > 25.9 µM
MOLT-4 leukemia
  GI50: > 1 µM
  TGI: > 100 µM
RXF 393 renal
  TGI: > 100 µM
UACC-62 melanoma
  GI50: > 1 µM
  TGI: > 100 µM
SK-OV-3 ovarian
  GI50: > 1 µM
  TGI: > 100 µM
SR leukemia
  GI50: > 1 µM
  TGI: > 100 µM
RPMI-8226 leukemia
  GI50: > 100 µM
  TGI: > 100 µM

## CCOC(=O)NC(=O)c1cn(CCN2CCN(C(=O)CNC(=O)CNC(=O)Cn3cc(C(=O)NC(=O)OCC)c(=O)[nH]c3=O)CC2)c(=O)[nH]c1=O
HT29 colon
  TGI: > 100 µM
COLO 205 colon
  TGI: > 100 µM
MOLT-4 leukemia
  TGI: > 100 µM
UACC-62 melanoma
  TGI: > 100 µM
SK-OV-3 ovarian
  TGI: > 100 µM
SR leukemia
  TGI: > 100 µM

## CC(C)/C=C1\CCC(CN2CCOCC2)C1=O (stereo not given)
IGROV1 ovarian
  TGI: 20.8 µM
HT29 colon
  TGI: 15.4 µM
COLO 205 colon
  TGI: 22.3 µM
MOLT-4 leukemia
  TGI: 10.2 µM
RXF 393 renal
  TGI: 14.1 µM
UACC-62 melanoma
  TGI: 36.3 µM
SK-OV-3 ovarian
  TGI: > 100 µM
SR leukemia
  TGI: 13.1 µM
RPMI-8226 leukemia
  TGI: 4.47 µM

## c1ccc(-c2nn3c(c2-c2ccnc4cc(OCCN5CCOCC5)ccc24)CCC3)nc1
IGROV1 ovarian
  GI50: 29.6 µM
  TGI: > 100 µM
T-47D breast
  GI50: > 100 µM
  TGI: > 100 µM
HT29 colon
  GI50: 30.3 µM
  TGI: > 100 µM
COLO 205 colon
  GI50: 41.6 µM
  TGI: > 100 µM
MOLT-4 leukemia
  GI50: 51.8 µM
  TGI: > 100 µM
RXF 393 renal
  GI50: > 100 µM
  TGI: > 100 µM
UACC-62 melanoma
  GI50: > 100 µM
  TGI: > 100 µM
SK-OV-3 ovarian
  GI50: > 100 µM
  TGI: > 100 µM
RPMI-8226 leukemia
  GI50: 53.7 µM
  TGI: > 100 µM

## OCCCCC#Cc1ccccc1C#Cc1ccc(O)cc1
IGROV1 ovarian
  GI50: 9.56 µM
  TGI: 22.8 µM
T-47D breast
  GI50: 19.7 µM
  TGI: 45.2 µM
HT29 colon
  GI50: 9.41 µM
  TGI: 22.2 µM
COLO 205 colon
  GI50: 21.6 µM
  TGI: 45.9 µM
MOLT-4 leukemia
  GI50: 9.96 µM
  TGI: 38.9 µM
RXF 393 renal
  GI50: 0.622 µM
  TGI: 22.4 µM
UACC-62 melanoma
  GI50: 15.7 µM
  TGI: 29.6 µM
SK-OV-3 ovarian
  GI50: 20 µM
  TGI: 40.2 µM
RPMI-8226 leukemia
  GI50: 19.1 µM
  TGI: 48.9 µM

## COc1cc(/C=C/c2ccc(C)cc2)cc(OC)c1OC
IGROV1 ovarian
  TGI: > 91 µM
T-47D breast
  TGI: 20.6 µM
HT29 colon
  TGI: 9.45 µM
COLO 205 colon
  TGI: 13.2 µM
MOLT-4 leukemia
  TGI: 25.6 µM
UACC-62 melanoma
  TGI: 15.6 µM
SK-OV-3 ovarian
  TGI: 39 µM
SR leukemia
  TGI: 16.6 µM
RPMI-8226 leukemia
  TGI: 43.7 µM

Reference: PubChem BioAssay (NCI)
